{"source": "EPA's ToxValDB 9.5", "key": {"[1]": {"system": "Mus musculus", "details": "short-term, duration: 28 days, oral, gavage, M, C57BL/6"}, "[2]": {"system": "Rattus norvegicus", "details": "oral, gavage; for NEL / LEL: Crl:CD(SD) BR; for LOAEL / NOAEL: Sprague-Dawley"}, "[3]": {"system": "Canidae", "details": "subchronic; oral; M/F; Dog Other; lesions in testes, cerebrum, cerebellum, and liver"}, "[4]": {"system": "Rattus norvegicus", "details": "repeat dose other; oral"}, "[5]": {"details": "Liver: Catalase (CAT) Activity, Liver + Multi-organ: Interleukin 1 Beta (IL-1b) mRNA + Spleen: Interleukin 6 (IL-6) mRNA"}, "[6]": {"details": "Liver: Superoxide Dismutase (SOD) Activity + Multi-organ: Catalase (CAT) Activity, Blood + Multi-organ: Interleukin 1 Beta (IL-1b), Serum + …"}, "[7]": {"details": "chronic, duration: 92 days, M, Blood: Hematocrit (HCT) + Blood: Hemoglobin (HGB) + Blood: Red Cell Distribution Width (RDW) + Blood: Reticulocytes + Blood: Total Protein (…"}, "[8]": {"details": "chronic, duration: 92 days, M, Blood: Mean Corpuscular Volume (MCV) + Blood: Red Blood Cell (RBC) + Kidney: Tubular Hypertrophy + Liver: Liver Weight, Relative + Liver: …"}, "[9]": {"details": "chronic, duration: 92 days, M, Cardiovascular: Aorta: Aorta Histopathology + Cardiovascular: Heart: Heart Histopathology + Cardiovascular: Heart: Heart Weight, Absolute + …"}, "[10]": {"details": "chronic, duration: 92 days, M, Hematologic: Blood: Activated Partial Thromboplastin Time (APTT) + Hematologic: Blood: Hematocrit (HCT) + Hematologic: Blood: Hemoglobin (…"}, "[11]": {"details": "chronic, duration: 93 days, F, Blood: Hematocrit (HCT) + Blood: Hemoglobin (HGB) + Blood: Red Blood Cell (RBC) + Blood: Red Cell Distribution Width (RDW) + Blood: …"}, "[12]": {"details": "chronic, duration: 93 days, F, Liver: Liver Weight, Absolute + Liver: Liver Weight, Relative"}, "[13]": {"details": "chronic, duration: 93 days, F, Cardiovascular: Aorta: Aorta Histopathology + Cardiovascular: Heart: Heart Histopathology + Cardiovascular: Heart: Heart Weight, Absolute + …"}, "[14]": {"details": "chronic, duration: 93 days, F, Hematologic: Blood: Activated Partial Thromboplastin Time (APTT) + Hematologic: Blood: Hematocrit (HCT) + Hematologic: Blood: Hemoglobin (…"}, "[15]": {"details": "developmental, duration: 14 days, M/F, generation: F1, F1: Pelvis: Litters with Pelvis, Incomplete Ossification + F1: Pelvis: Pelvis, Incomplete Ossification + F1: Rib: Litters with Rib, Wavy + …"}, "[16]": {"details": "developmental, duration: 14 days, M/F, generation: F1, F1: Skull: Litters with Skull, Incomplete Ossification + F1: Skull: Skull, Incomplete Ossification"}, "[17]": {"details": "developmental, duration: 14 days, M/F, generation: F1, F1: Developmental: Head: Fetal Alterations Count, Head Malformations + F1: Developmental: Head: Litters with Head Malformations + F1: …"}, "[18]": {"details": "developmental, duration: 14 days, M/F, generation: F1, F1: Developmental: Rib: Rib, Wavy + F1: Developmental: Skull: Litters with Skull, Incomplete Ossification + F1: Developmental: Sternebra: …"}, "[19]": {"details": "reproduction developmental, duration: 14 days, F, generation: P0, P0: Fur: Stained Fur + P0: Hair/Fur: Alopecia + P0: Intestine: Soft or Liquid Feces + P0: Whole Body: Hunched Posture + P0: Whole Body: …"}, "[20]": {"details": "reproduction developmental, duration: 14 days, F, generation: P0, P0: Developmental: Uterus: Implantation"}, "[21]": {"details": "reproduction developmental, duration: 14 days, F, generation: P0, P0: Developmental: Uterus: Implantation + P0: Developmental: Uterus: Resorptions, Mean/Litter + P0: Developmental: Whole Body: No. Male Pups…"}, "[22]": {"details": "reproduction developmental, duration: 14 days, F, generation: P0, P0: Developmental: Whole Body: No. Male Pups per No. of Pups Sexed + P0: General Toxicity: Whole Body: Hunched Posture + P0: General …"}}, "data": [{"compound": "OCCC(F)(F)C(F)(F)C(F)(F)C(F)(F)C(F)(F)C(F)(F)C(F)(F)C(F)(F)F", "note": "[2-(Perfluorooctyl)ethanol]", "values": [{"measurement": "LEL", "setting": "[1]; [5]", "result": 100, "unit": "mg/kg-day"}, {"measurement": "NEL", "setting": "[1]; [5]", "result": 30, "unit": "mg/kg-day"}, {"measurement": "NEL", "setting": "[1]; Liver: Glutathione (GSH), Liver + Multi-organ: Chemokine C-X-C motif Ligand 1 (CXCL-1), Serum + Multi-organ: Interleukin 6 (IL-6) mRNA + …", "result": 100, "unit": "mg/kg-day"}, {"measurement": "LEL", "setting": "[1]; Liver: Liver Histopathology + Liver: Liver Weight, Absolute + Liver: Liver Weight, Relative + Multi-organ: Chemokine C-X-C motif Ligand 1 (…", "result": 10, "unit": "mg/kg-day"}, {"measurement": "LEL", "setting": "[1]; [6]", "result": 30, "unit": "mg/kg-day"}, {"measurement": "NEL", "setting": "[1]; [6]", "result": 10, "unit": "mg/kg-day"}, {"measurement": "NEL", "setting": "[2]; chronic, duration: 92 days, M, Adrenal: Adrenal Gland Histopathology + Adrenal: Adrenal Gland Weight, Absolute + Adrenal: Adrenal Gland Weight, Relative + Aorta: Aorta …", "result": 125, "unit": "mg/kg-day"}, {"measurement": "LEL", "setting": "[2]; [7]", "result": 125, "unit": "mg/kg-day"}, {"measurement": "NEL", "setting": "[2]; [7]", "result": 25, "unit": "mg/kg-day"}, {"measurement": "LEL", "setting": "[2]; [8]", "result": 25, "unit": "mg/kg-day"}, {"measurement": "NEL", "setting": "[2]; [8]", "result": 5, "unit": "mg/kg-day"}, {"measurement": "LEL", "setting": "[2]; chronic, duration: 92 days, M, Liver: Cholesterol (CHOL), Total, Blood + Thyroid: Colloid Alteration", "result": 1, "unit": "mg/kg-day"}, {"measurement": "LOAEL", "setting": "[2]; [9]", "result": 1, "unit": "mg/kg-day"}, {"measurement": "NOAEL", "setting": "[2]; [9]", "result": 125, "unit": "mg/kg-day"}, {"measurement": "LOAEL", "setting": "[2]; chronic, duration: 92 days, M, Endocrine: Adrenal: Adrenal Gland Histopathology + Endocrine: Adrenal: Adrenal Gland Weight, Absolute + Endocrine: Adrenal: Adrenal Gland …", "result": 1, "unit": "mg/kg-day"}, {"measurement": "LOAEL", "setting": "[2]; [10]", "result": 25, "unit": "mg/kg-day"}, {"measurement": "NOAEL", "setting": "[2]; [10]", "result": 5, "unit": "mg/kg-day"}, {"measurement": "NEL", "setting": "[2]; chronic, duration: 93 days, F, Adrenal: Adrenal Gland Histopathology + Adrenal: Adrenal Gland Weight, Absolute + Adrenal: Adrenal Gland Weight, Relative + Aorta: Aorta …", "result": 125, "unit": "mg/kg-day"}, {"measurement": "LEL", "setting": "[2]; [11]", "result": 125, "unit": "mg/kg-day"}, {"measurement": "NEL", "setting": "[2]; [11]", "result": 25, "unit": "mg/kg-day"}, {"measurement": "LEL", "setting": "[2]; [12]", "result": 25, "unit": "mg/kg-day"}, {"measurement": "NEL", "setting": "[2]; [12]", "result": 5, "unit": "mg/kg-day"}, {"measurement": "LOAEL", "setting": "[2]; [13]", "result": 1, "unit": "mg/kg-day"}, {"measurement": "NOAEL", "setting": "[2]; [13]", "result": 125, "unit": "mg/kg-day"}, {"measurement": "LOAEL", "setting": "[2]; chronic, duration: 93 days, F, Endocrine: Adrenal: Adrenal Gland Histopathology + Endocrine: Adrenal: Adrenal Gland Weight, Absolute + Endocrine: Adrenal: Adrenal Gland …", "result": 1, "unit": "mg/kg-day"}, {"measurement": "LOAEL", "setting": "[2]; [14]", "result": 25, "unit": "mg/kg-day"}, {"measurement": "NOAEL", "setting": "[2]; [14]", "result": 5, "unit": "mg/kg-day"}, {"measurement": "NEL", "setting": "[2]; developmental, duration: 14 days, M/F, generation: F1, F1: Head: Fetal Alterations Count, Head Malformations + F1: Head: Litters with Head Malformations + F1: Kidney: Litters with Small Renal …", "result": 500, "unit": "mg/kg-day"}, {"measurement": "LEL", "setting": "[2]; [15]", "result": 500, "unit": "mg/kg-day"}, {"measurement": "NEL", "setting": "[2]; [15]", "result": 200, "unit": "mg/kg-day"}, {"measurement": "LEL", "setting": "[2]; [16]", "result": 200, "unit": "mg/kg-day"}, {"measurement": "NEL", "setting": "[2]; [16]", "result": 50, "unit": "mg/kg-day"}, {"measurement": "LOAEL", "setting": "[2]; [17]", "result": 200, "unit": "mg/kg-day"}, {"measurement": "NOAEL", "setting": "[2]; [17]", "result": 20, "unit": "mg/kg-day"}, {"measurement": "LOAEL", "setting": "[2]; [18]", "result": 500, "unit": "mg/kg-day"}, {"measurement": "NOAEL", "setting": "[2]; [18]", "result": 200, "unit": "mg/kg-day"}, {"measurement": "LEL", "setting": "[2]; [19]", "result": 500, "unit": "mg/kg-day"}, {"measurement": "NEL", "setting": "[2]; [19]", "result": 200, "unit": "mg/kg-day"}, {"measurement": "NEL", "setting": "[2]; reproduction developmental, duration: 14 days, F, generation: P0, P0: Ovary: Corpora Lutea + P0: Uterus: Implantation + P0: Uterus: Resorptions, Mean/Litter + P0: Whole Body: Male Pups per Pups Sexed", "result": 500, "unit": "mg/kg-day"}, {"measurement": "LOAEL", "setting": "[2]; [20]", "result": 500, "unit": "mg/kg-day"}, {"measurement": "NOAEL", "setting": "[2]; [20]", "result": 200, "unit": "mg/kg-day"}, {"measurement": "LOAEL", "setting": "[2]; [21]", "result": 200, "unit": "mg/kg-day"}, {"measurement": "NOAEL", "setting": "[2]; [21]", "result": 20, "unit": "mg/kg-day"}, {"measurement": "NOAEL", "setting": "[2]; reproduction developmental, duration: 14 days, F, generation: P0, P0: Developmental: Uterus: Resorptions, Mean/Litter", "result": 500, "unit": "mg/kg-day"}, {"measurement": "LOAEL", "setting": "[2]; [22]", "result": 200, "unit": "mg/kg-day"}, {"measurement": "NOAEL", "setting": "[2]; [22]", "result": 20, "unit": "mg/kg-day"}]}, {"compound": "O=C(O)C(Cl)Cl", "note": "[Dichloroacetic acid]", "values": [{"measurement": "LOAEL", "setting": "[3]", "result": 12.5, "unit": "mg/kg-day"}]}, {"compound": "[O]=[Cr][O][Cr]=[O]", "note": "[Chromium(III) oxide]", "values": [{"measurement": "NOAEL", "setting": "[4]", "result": 2740, "unit": "mg/kg-day"}]}]}
